Test results from patent US12509447B2, “Small molecule compound” (Technoderma Medicines Pte Ltd, priority 2019, dated 2025).

Assays:
Type in all cases: biochemical
[1] = molecular target: Tyk2 (Homo sapiens, UniProt P29597); experiment: Inhibition of JAK kinase activity, EZ Reader microfluidic phosphorylation of peptide substrate: Tyk2; details: Tyk2 kinase 1 nM; highest final concentration 10 μM, 1:3 serial dilution, 8 points, duplicates
Description: (§1) EZ Reader available from PerkinElmer can be used for detecting the phosphorylation of polypeptide substrates catalyzed by kinases. This device is based on microfluidic separation technology, and can directly detect fluorescence labeled substrates and products. The separation step is achieved in a microfluidic chip by controlling the pressure and electric field intensity. In a kinase experiment, the product conversion rate is generally controlled at 20-30%. This biological assay method is used for identifying the inhibitory effect of the compounds on JAK.
(§2) The compound powder was dissolved in DMSO, sealed and stored in a refrigerator at −20° C. The in-house compound Ref1 was used as a positive control for testing of JAK1, JAK2 and Tyk2, and Ref2 was used as a positive control for testing of JAK3.
(§3) • S2.1. 1M HEPES buffer: 0.5M HEPES free acid and 0.5M HEPES sodium salt are weighed, added into ultrapure water for dissolution, brought to a desired volume, filtered and stored in a refrigerator at 4° C. • S2.2. 40 mM ATP solution: dissolved in a 50 mM HEPES buffer solution, prepared into 40 mM, aliquoted, and cryopreserved in a refrigerator at −20° C. • S2.3. 0.5% Tween 20: 100% Tween 20 was diluted with ultrapure water, and stored in a refrigerator at 4° C. • S2.4. 35% bovine serum albumin: a 35% bovine serum albumin solution is prepared in ultrapure water, aliquoted, and stored in a refrigerator at −20° C. • S2.5. 1M dithiothreitol solution: dithiothreitol is formulated into a 1M solution with ultrapure water, aliquoted, and stored in a refrigerator at −20° C. • S2.6. 0.5 mM Jaktide Peptide substrate solution: it is dissolved in 50 mM HEPES to 0.5 mM, aliquoted, and stored in a refrigerator at −20° C. • S2.7. 0.5 mM IRStide Peptide substrate solution: it is dissolved in 50 mM HEPES to 0.5 mM, aliquoted, and stored in a refrigerator at −20° C. • S2.8. Assay Buffer: 20 mM HEPES buffer, pH 7.4, 10 mM magnesium chloride, 0.01% bovine serum albumin BSA, 0.0005% Tween-20, and a 1 mM dithiothreitol solution. • S2.9. Stop Buffer: 180 mM HEPES buffer, 20 mM ethylenediamine tetraacetic acid (EDTA), and 0.2% Coating Reagent 3. • S2.10. Separation Buffer: 100 mM HEPES buffer, 10 mM EDTA, 0.0005% Tween 20, 0.1% Coating Reagent 3, and 1% dimethyl sulfoxide. 3. Experimental Procedures • S3.1. Preparation of compound plate
(§4) The compound is dissolved in dimethyl sulfoxide to 10 mM, a certain volume is taken and diluted to 0.6 mM, 10 μl of the diluted 0.6 mM solution is taken and added into a 384 microplate or 1:3 serial dilution, with a total of 8 concentration points. • S3.2. Compound layout
(§5) • positive control (HPE1): Ref1, final concentration: 10 μM • positive control (HPE1): Ref2, final concentration: 10 μM • negative control (ZPE): DMSO, with a final concentration of 1.6% • Compound: the highest final concentration at 10 μM, 1:3 serial dilution, with 8 concentration points and in duplicates. 4. Experimental operation steps • S4.1. the experimental plate was added with 250 nl of the compound per well with ECHO, and centrifuged at 1,000 rpm for 1 minute; • S4.2. the precipitate was added with 5 μl of the experimental buffer, and shaken for several seconds to fully dissolve the compound; • S4.3. the solution was added with 5 μl of a 3× substrate solution, as well as 5 μl of a 3× kinase solution, and centrifuged at 800 rpm for 1 minute; • S4.4. The final concentrations of JAK1, JAK2, JAK3 and Tyk2 kinases in the reaction system are 20, 1, 1 and 1 nM, respectively. • S4.5. the reaction system is incubated at room temperature, wherein the incubation time of each kinase is different, and there are differences in incubation time of different batches of kinases. • S4.6. When the reaction reaches 20%-30%, the reaction system is added with 15 μl of the stop buffer to terminate the reaction, and centrifuged at 1,000 rpm for 2 minutes. • S4.7. The precipitate was placed onto a EZ Reader for plate reading. • S4.8. […]

[2] = molecular target: JAK2 (Homo sapiens, UniProt O60674); experiment: Inhibition of JAK kinase activity, EZ Reader microfluidic phosphorylation of peptide substrate: JAK2; details: JAK2 kinase 1 nM; highest final concentration 10 μM, 1:3 serial dilution, 8 points, duplicates
Description: as §1, §2, §3, §4, §5

[3] = molecular target: JAK1 (Homo sapiens, UniProt P23458); experiment: Inhibition of JAK kinase activity, EZ Reader microfluidic phosphorylation of peptide substrate: JAK1; details: JAK1 kinase 20 nM; highest final concentration 10 μM, 1:3 serial dilution, 8 points, duplicates
Description: as §1, §2, §3, §4, §5

[4] = molecular target: T1, JAK3 (Homo sapiens, UniProt P52333); experiment: Inhibition of JAK kinase activity, EZ Reader microfluidic phosphorylation of peptide substrate: JAK3; details: JAK3 kinase 1 nM; highest final concentration 10 μM, 1:3 serial dilution, 8 points, duplicates
T1 sequence (P52333 1-1124): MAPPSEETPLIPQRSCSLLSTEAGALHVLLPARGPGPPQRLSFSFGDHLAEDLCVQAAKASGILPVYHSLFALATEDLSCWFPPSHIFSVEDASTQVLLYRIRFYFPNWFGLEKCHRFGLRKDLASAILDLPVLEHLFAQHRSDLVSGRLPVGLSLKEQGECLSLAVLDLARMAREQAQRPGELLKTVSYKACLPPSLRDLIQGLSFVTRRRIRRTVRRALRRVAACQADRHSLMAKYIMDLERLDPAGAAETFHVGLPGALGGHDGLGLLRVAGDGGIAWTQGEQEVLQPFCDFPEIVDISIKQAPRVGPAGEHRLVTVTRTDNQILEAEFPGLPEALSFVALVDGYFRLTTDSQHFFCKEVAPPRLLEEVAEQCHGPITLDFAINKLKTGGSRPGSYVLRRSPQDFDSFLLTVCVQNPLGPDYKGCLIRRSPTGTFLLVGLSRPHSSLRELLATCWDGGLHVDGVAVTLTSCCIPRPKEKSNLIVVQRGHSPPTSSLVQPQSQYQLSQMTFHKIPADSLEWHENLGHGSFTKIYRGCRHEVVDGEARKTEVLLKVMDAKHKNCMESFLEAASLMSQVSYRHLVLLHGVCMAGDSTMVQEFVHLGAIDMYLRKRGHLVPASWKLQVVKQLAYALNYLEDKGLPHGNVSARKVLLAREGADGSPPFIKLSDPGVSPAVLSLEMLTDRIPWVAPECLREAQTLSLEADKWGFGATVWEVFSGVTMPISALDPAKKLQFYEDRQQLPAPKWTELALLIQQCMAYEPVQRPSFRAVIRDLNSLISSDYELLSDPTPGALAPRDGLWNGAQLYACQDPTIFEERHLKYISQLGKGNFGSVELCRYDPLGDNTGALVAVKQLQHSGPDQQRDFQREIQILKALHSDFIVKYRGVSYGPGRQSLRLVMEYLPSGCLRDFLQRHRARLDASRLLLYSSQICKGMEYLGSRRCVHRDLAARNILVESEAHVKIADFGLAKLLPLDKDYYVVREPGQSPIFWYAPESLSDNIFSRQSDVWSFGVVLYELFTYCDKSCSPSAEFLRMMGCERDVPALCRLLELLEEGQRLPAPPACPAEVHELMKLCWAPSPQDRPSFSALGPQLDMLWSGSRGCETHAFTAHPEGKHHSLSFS
Description: as §1, §2, §3, §4, §5

Chain of JAK1 (P23458 whole entry): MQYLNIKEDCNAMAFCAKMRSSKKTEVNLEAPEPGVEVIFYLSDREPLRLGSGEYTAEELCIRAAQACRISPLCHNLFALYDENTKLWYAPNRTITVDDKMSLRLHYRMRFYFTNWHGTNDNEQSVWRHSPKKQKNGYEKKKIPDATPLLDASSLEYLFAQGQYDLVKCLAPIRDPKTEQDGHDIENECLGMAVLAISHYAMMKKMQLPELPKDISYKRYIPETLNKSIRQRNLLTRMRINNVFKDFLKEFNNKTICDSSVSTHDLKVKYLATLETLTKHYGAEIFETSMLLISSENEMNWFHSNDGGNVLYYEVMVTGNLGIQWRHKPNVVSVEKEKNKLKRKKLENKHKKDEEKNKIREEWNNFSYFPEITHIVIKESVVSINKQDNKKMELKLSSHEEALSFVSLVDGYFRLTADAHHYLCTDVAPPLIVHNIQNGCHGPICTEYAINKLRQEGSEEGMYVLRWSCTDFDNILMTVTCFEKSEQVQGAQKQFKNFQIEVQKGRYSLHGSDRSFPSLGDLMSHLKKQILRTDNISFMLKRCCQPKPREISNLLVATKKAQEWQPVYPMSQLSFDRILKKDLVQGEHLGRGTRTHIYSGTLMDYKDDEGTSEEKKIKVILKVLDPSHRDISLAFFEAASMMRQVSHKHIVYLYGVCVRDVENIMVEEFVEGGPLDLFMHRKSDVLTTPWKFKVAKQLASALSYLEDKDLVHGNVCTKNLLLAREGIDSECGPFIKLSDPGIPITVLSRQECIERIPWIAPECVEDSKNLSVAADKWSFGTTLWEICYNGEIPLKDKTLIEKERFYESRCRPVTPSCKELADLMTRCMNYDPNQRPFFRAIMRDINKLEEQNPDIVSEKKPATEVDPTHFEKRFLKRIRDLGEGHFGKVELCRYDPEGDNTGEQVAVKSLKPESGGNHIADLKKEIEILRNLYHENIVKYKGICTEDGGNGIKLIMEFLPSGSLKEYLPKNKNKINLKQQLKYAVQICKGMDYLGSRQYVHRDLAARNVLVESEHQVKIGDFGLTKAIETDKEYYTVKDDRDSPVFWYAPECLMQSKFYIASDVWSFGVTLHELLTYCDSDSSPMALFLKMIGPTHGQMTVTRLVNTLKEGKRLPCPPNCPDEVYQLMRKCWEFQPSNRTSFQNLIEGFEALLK
Chain of JAK2 (O60674 whole entry): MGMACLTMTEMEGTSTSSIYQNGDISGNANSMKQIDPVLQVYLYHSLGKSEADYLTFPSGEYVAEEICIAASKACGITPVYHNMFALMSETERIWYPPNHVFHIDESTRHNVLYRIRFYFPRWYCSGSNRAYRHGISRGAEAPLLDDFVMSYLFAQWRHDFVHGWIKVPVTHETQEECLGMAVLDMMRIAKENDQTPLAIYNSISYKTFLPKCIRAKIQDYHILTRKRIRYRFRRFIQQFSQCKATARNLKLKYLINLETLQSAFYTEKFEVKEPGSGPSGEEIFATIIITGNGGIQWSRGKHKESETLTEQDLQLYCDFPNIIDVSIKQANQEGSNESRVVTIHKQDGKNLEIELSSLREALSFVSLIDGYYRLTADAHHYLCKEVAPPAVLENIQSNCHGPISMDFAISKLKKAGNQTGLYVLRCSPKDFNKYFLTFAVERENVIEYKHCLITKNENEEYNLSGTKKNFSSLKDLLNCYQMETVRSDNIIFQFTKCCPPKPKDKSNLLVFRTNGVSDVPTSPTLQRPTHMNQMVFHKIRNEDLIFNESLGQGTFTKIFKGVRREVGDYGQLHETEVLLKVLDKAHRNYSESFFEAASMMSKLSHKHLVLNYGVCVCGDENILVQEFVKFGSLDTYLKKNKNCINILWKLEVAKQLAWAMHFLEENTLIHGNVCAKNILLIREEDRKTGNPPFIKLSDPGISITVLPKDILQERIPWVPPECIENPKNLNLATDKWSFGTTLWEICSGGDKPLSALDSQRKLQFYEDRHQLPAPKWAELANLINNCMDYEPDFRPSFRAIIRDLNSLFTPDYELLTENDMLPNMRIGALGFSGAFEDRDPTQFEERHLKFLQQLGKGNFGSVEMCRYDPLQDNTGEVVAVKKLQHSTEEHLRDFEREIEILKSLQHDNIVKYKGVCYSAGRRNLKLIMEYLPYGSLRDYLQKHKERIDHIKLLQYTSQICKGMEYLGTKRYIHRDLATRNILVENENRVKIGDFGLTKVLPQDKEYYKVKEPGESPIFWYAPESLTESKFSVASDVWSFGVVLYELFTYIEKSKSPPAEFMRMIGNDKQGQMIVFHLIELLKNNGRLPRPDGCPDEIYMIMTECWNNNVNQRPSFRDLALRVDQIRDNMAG
Chain of Tyk2 (P29597 whole entry): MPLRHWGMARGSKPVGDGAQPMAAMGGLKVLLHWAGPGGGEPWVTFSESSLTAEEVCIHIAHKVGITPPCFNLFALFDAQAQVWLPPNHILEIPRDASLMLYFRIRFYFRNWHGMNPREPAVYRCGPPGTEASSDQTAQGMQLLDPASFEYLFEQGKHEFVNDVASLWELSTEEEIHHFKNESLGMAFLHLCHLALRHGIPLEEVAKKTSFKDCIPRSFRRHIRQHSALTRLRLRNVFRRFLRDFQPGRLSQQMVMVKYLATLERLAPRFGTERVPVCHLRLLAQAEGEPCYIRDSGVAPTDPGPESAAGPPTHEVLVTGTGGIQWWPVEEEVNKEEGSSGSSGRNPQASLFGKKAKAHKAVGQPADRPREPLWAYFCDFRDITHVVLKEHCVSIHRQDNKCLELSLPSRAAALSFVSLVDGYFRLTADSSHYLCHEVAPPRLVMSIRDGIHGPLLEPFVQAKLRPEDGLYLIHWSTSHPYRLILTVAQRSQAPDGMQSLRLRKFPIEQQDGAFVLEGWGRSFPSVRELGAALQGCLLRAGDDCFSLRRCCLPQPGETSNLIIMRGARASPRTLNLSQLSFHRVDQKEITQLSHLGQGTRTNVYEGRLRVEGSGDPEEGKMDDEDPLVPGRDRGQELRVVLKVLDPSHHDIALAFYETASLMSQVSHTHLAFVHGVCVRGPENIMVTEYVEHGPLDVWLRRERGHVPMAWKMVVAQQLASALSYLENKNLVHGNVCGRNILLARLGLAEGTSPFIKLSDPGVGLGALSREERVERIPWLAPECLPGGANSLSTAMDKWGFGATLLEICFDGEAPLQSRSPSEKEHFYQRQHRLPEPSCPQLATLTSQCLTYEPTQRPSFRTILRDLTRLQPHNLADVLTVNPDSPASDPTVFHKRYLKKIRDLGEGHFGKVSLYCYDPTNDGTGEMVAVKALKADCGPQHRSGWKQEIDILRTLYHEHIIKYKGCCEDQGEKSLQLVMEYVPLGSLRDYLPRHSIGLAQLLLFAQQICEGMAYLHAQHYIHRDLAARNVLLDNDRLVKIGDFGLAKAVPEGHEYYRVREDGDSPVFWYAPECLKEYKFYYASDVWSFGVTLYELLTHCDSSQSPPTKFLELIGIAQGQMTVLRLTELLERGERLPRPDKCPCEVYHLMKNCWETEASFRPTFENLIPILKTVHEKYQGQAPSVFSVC

SMILES	IC50 [1] [µM]	IC50 [2] [µM]	IC50 [3] [µM]	IC50 [4] [µM]
Cn1cc(Nc2nccc(-c3cnn(C4CCN(C(=O)C5CC5(F)F)C4)c3)n2)cn1 (stereo not shown) [TDM-180654, (2,2-difluorocyclopropyl)(3-(4-(2-((1-methyl-1H-pyrazol-4-yl)amino)pyrimidin-4-yl)-1H-pyrazol-1-yl)pyrrolidin-1-yl)ketone]	1 to 10	1 to 10	≥ 10	≥ 10
Cn1cc(Nc2nccc(-c3ccn(C4(CC#N)CN(S(=O)(=O)CCCF)C4)c3)n2)cn1 [TDM-180854, 2-(1-((3-fluoropropyl)sulfonyl)-3-(3-(2-((1-methyl-1H-pyrazol-4-yl)amino)pyrimidin-4-yl)-1H-pyrrol-1-yl)azetidin-3-yl)acetonitrile]	0.1 to 1	< 0.1	0.1 to 1	1 to 10
Cn1cc(Nc2cc(-c3cnn(C4CN(C(=O)C5CC5)C4)c3)ccn2)cn1 [TDM-180637, cyclopropyl(3-(4-(2-((1-methyl-1H-pyrazol-4-yl)amino)pyridin-4-yl)-1H-pyrazol-1-yl)azetidin-1-yl)ketone]	≥ 10	≥ 10	≥ 10	≥ 10
CCS(=O)(=O)N1CC(n2cc(-c3ccnc(Nc4cnn(C)c4)n3)cn2)C1 [TDM-180665, 4-(1-(1-(ethylsulfonyl)azetidin-3-yl)-1H-pyrazol-4-yl)-N-(1-methyl-1H-pyrazol-4-yl)pyrimidin-2-amine]	1 to 10	1 to 10	1 to 10	≥ 10
CCCS(=O)(=O)N1CC(n2cc(-c3ccnc(Nc4cnn(C)c4)n3)cn2)C1 [TDM-180666, N-(1-methyl-1H-pyrazol-4-yl)-4-(1-(1-(propylsulfonyl)azetidin-3-yl)-1H-pyrazol-4-yl)pyrimidin-2-amine]	≥ 10	1 to 10	≥ 10	≥ 10
Cn1cc(Nc2nccc(-c3cnn(C4CCN(C(=O)C5CC5)CC4)c3)n2)cn1 [TDM-180673, cyclopropyl(4-(4-(2-((1-methyl-1H-pyrazol-4-yl)amino)pyrimidin-4-yl)-1H-pyrazol-1-yl)piperidin-1-yl)ketone]	≥ 10	≥ 10	≥ 10	≥ 10
CCS(=O)(=O)N1CC(n2cc(-c3ccnc(Nc4cnn(C)c4)c3)cn2)C1 [TDM-180642, 4-(1-(1-(ethylsulfonyl)azetidin-3-yl)-1H-pyrazol-4-yl)-N-(1-methyl-1H-pyrazol-4-yl) pyridine-2-amine]	≥ 10	≥ 10	≥ 10	≥ 10
C=CCS(=O)(=O)N1CC(CC#N)(n2cc(-c3ccnc(Nc4cnn(C)c4)n3)cn2)C1 [TDM-180800, 2-(1-(allylsulfonyl)-3-(4-(2-((1-methyl-1H-pyrazol-4-yl)amino)pyrimidin-4-yl)-1H-pyrazol-1-yl)azetidin-3-yl)acetonitrile]	0.1 to 1	0.1 to 1	0.1 to 1	1 to 10
Cn1cc(Nc2nccc(-c3cnn(C4CN(C(=O)CC(F)(F)F)C4)c3)n2)cn1 [TDM-180669, 3,3,3-trifluoro-1-(3-(4-(2-((1-methyl-1H-pyrazol-4-yl)amino)pyrimidin-4-yl)-1H-pyrazol-1-yl)azetidin-yl)propan-1-one]	≥ 10	≥ 10	≥ 10	≥ 10
Cn1cc(Nc2nccc(-c3cnn(C4(CC#N)CN(C(=O)C5CC5)C4)c3)n2)cn1 [TDM-180753, 2-(1-(cyclopropanecarbonyl)-3-(4-(2-((1-methyl-1H-pyrazol-4-yl)amino)pyrimidin-4-yl)-1H-pyrazol-1-yl)azetidinpyridin-3-yl)acetonitrile]	0.1 to 1	1 to 10	0.1 to 1	≥ 10
Cn1cc(Nc2nccc(-c3ccn(C4(CC#N)CN(C(=O)C5CC5(F)F)C4)c3)n2)cn1 (stereo not shown) [TDM-180776, 2-(1-(2,2-difluorocyclo-1-carbonyl)-3-(3-(2-((1-methyl-1H-pyrazol-4-yl)amino)pyrimidin-4-yl)-1H-pyrrol-1-yl)azetidin-3-yl)acetonitrile]	< 0.1	< 0.1	< 0.1	1 to 10
CCS(=O)(=O)N1CCC(n2cc(-c3ccnc(Nc4cnn(C)c4)n3)cn2)CC1 [TDM-180674, 4-(1-(1-(ethylsulfonyl)piperidin-4-yl)-1H-pyrazol-4-yl)-N-(1-methyl-1H-pyrazol-4-yl)pyrimidin-2-amine]	1 to 10	1 to 10	≥ 10	≥ 10
Cn1cc(Nc2cc(-c3cnn(C4CN(C(=O)CC(F)(F)F)C4)c3)ccn2)cn1 [TDM-180636, 3,3,3-trifluoro-1-(3-(4-(2-((1-methyl-1H-pyrazol-4-yl)amino)pyridin-4-yl)-1H-pyrazol-1-yl)azetidin-1-yl)propan-1-one]	≥ 10	≥ 10	≥ 10	≥ 10
